Laboratory results as given in patent publication US4469848A, “Deodorant product for surface treatment” (priority 1978, dated 1984).

Assays:
[1] = Morpholine test: depression of partial vapour pressure of morpholine relative to Raoult's Law (headspace GC); conditions: material 1 g + morpholine 0.25 g, 37° C., 30 minutes
lipoxidase (ECl.13.1.13) = biological target: T1, lipoxidase (ECl.13.1.13) (Glycine max, UniProt P08170); assay: Lipoxidase test: inhibition of lipoxidase-catalysed oxidation of linoleic acid to hydroperoxide (234 nm); assay type: biochemical; conditions: 0.5% by weight solution of material in ethanol as test substrate solvent; pH 9.0 borate buffer
T1 sequence (P08170 1-839): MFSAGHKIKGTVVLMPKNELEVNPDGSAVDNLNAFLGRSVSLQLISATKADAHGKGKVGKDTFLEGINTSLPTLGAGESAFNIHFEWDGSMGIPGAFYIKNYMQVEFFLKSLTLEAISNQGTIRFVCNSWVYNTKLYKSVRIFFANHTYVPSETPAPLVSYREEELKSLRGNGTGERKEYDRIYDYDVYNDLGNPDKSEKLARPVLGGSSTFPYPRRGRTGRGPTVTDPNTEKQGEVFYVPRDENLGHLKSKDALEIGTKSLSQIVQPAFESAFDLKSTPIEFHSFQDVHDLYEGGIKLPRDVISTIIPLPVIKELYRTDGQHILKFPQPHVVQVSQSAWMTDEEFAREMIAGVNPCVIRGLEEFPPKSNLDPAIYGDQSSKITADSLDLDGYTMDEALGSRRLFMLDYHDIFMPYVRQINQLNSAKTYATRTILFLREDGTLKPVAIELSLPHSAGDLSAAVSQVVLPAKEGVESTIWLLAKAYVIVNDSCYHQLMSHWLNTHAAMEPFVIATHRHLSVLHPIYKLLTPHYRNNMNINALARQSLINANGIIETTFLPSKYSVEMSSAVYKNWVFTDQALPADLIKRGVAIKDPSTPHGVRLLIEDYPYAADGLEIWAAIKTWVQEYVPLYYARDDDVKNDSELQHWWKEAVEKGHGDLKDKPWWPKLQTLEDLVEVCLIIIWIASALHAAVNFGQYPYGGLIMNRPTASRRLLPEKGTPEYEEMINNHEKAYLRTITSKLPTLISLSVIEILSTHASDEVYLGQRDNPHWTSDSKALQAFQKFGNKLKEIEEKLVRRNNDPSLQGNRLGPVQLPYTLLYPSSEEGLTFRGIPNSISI

CCCCCCCC1CCCC1=O (stereo not drawn) [2-n-heptylcyclopentanone]
Raoult variance ratio (RVR) [1]: 1.05

CC1(C)CCCC2(C)C1CCC1(C)OCCC12 (stereo not drawn) [3a-Methyl-dodecahydro-6,6,9a-trimethylnaphtho(2,1-b)furan]
Raoult variance ratio (RVR) [1]: 1.30

O=C(OCc1ccccc1)c1ccccc1O [Benzyl salicylate]
Raoult variance ratio (RVR) [1]: 1.58

Cc1ccc(C(C)C)cc1O [Carvacrol]
Raoult variance ratio (RVR) [1]: 1.43

O=c1ccc2ccccc2o1 [Coumarin]
Raoult variance ratio (RVR) [1]: 1.22

CCOC(=O)c1ccccc1C(=O)OCC [Diethyl phthalate]
Raoult variance ratio (RVR) [1]: 1.20

CCOc1cc(C=O)ccc1O [Ethyl vanillin]
Raoult variance ratio (RVR) [1]: 1.43

CCCCCCC(CCOC(C)=O)OC(C)=O (stereo not drawn) [Nonanediol-1,3-diacetate]
Raoult variance ratio (RVR) [1]: 1.17

CCCCCC1CCC(=O)O1 (stereo not drawn) [Nonanolide-1:4]
Raoult variance ratio (RVR) [1]: 0.87

OCCc1ccccc1 [Phenylether alcohol]
Raoult variance ratio (RVR) [1]: 1.24

CC(C)CCOC(=O)c1ccccc1O [iso-Amyl salicylate]
Raoult variance ratio (RVR) [1]: 1.24

C/C=C\c1ccc(O)c(OC)c1 [iso-Eugenol]
Raoult variance ratio (RVR) [1]: 1.48

CC(=O)OC1CCCCC1C(C)(C)C (stereo not drawn) [o-t-Butylcyclohexyl acetate]
Raoult variance ratio (RVR) [1]: 1.08

CCC(C)(C)C1CCC(=O)CC1 [p-t-Amyl cyclohexanone]
Raoult variance ratio (RVR) [1]: 1.10

CC(=O)OC1CCC(C(C)(C)C)CC1 (stereo not drawn) [p-t-Butylcyclohexyl acetate]
Raoult variance ratio (RVR) [1]: 0.98

CC(=O)c1ccc2ccccc2c1 [β-Methyl naphthyl ketone]
Raoult variance ratio (RVR) [1]: 0.96

Dimyrcetol
lipoxidase inhibiting capacity (LIC), % inhibition (lipoxidase (ECl.13.1.13)): 16%
Raoult variance ratio (RVR) [1]: 1.22

Tetrahydromuguol
lipoxidase inhibiting capacity (LIC), % inhibition (lipoxidase (ECl.13.1.13)): 24%
Raoult variance ratio (RVR) [1]: 1.23

i-Nonyl acetate
lipoxidase inhibiting capacity (LIC), % inhibition (lipoxidase (ECl.13.1.13)): 50%
Raoult variance ratio (RVR) [1]: 0.83

i-Nonyl formate
lipoxidase inhibiting capacity (LIC), % inhibition (lipoxidase (ECl.13.1.13)): 19%
Raoult variance ratio (RVR) [1]: 1.49
